Our source for the IC50 values is PubChem BioAssay AID743443 (The Scripps Research Institute Molecular Screening Center, 2014).

SMILES strings stand for the structures. Calls of active or inactive are those of the source. The rule behind the calls is not given here. Where only a bound is given, the exact number is not on record here.

In the test the target is Sphingosine 1-phosphate receptor 5 (Homo sapiens) (UniProt Q9H228). Put plainly: S1P5 receptor antagonists, late-stage follow-up, selectivity assay for S1PR3 antagonist project, cell-based, FRET, dose response (AID 743443).
Chain of Sphingosine 1-phosphate receptor 5 (Homo sapiens) (Q9H228 whole entry, looked up): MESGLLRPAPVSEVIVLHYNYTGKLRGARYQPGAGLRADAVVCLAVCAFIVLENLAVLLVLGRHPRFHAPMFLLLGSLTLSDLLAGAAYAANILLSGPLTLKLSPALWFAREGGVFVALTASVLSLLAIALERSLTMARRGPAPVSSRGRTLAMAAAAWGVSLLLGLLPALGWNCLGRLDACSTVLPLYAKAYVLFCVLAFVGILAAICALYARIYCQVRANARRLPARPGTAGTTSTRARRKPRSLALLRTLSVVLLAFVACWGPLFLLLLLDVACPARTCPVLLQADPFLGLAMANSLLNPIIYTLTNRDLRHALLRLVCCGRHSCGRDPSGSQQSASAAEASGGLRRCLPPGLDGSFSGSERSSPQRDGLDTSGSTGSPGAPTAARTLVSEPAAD
Take `O=C(NC(c1ccc(Br)cc1)c1nc(-c2ccccc2)no1)c1ccc(Cl)c(Cl)c1` (stereo not given): the IC50 (commonly the concentration that inhibits the measured activity by half) was > 28.2 µM (inactive).
In the case of `O=C(NC(c1cccc(Cl)c1)c1nc(-c2ccccc2)no1)c1cc(Cl)cc(Cl)c1` (stereo not given) it was > 28.2 µM (inactive); in that of `O=C(NC(c1ccc(Cl)cc1)c1nc(-c2cccc(Cl)c2)no1)c1cccc(Cl)c1` (stereo not given), > 28.2 µM (inactive).
With `O=C(NC(c1ccccc1)c1nc(-c2ccccc2)no1)c1ccc(Cl)cc1` (stereo not given) the figure was > 28.2 µM (inactive); with `Cc1ccc(C(=O)NC(c2ccccc2)c2nc(-c3ccccc3)no2)cc1` (stereo not given), > 28.2 µM (inactive); with `O=C(NC(c1ccc(Cl)c(Cl)c1)c1nc(-c2ccccc2)no1)c1ccc(Cl)c(Cl)c1` (stereo not given), > 28.2 µM (inactive).
In the case of `CCc1ccc(C(NC(=O)c2cccc(Cl)c2)c2nc(-c3ccccc3)no2)cc1` (stereo not given) it was > 28.2 µM (inactive).
On to `O=C(NC(c1ccc(Cl)cc1)c1nc(-c2ccccc2)no1)c1cccc(Br)c1` (stereo not given), for which the IC50 result was “inactive”.
In the case of `N#Cc1ccc(C(=O)NC(c2ccc(Cl)c(Cl)c2)c2nc(-c3ccccc3)no2)cc1` (stereo not given), the IC50 result is “inactive”.
Regarding `O=C(NC(c1ccc(Cl)c(Cl)c1)c1nc(-c2ccccc2)no1)c1ccc(Cl)cc1` (stereo not given), the IC50 result was “inactive”.
With `COc1ccc(C(=O)NC(c2ccccc2)c2nc(-c3ccccc3)no2)cc1` (stereo not given) the figure was > 28.2 µM (inactive); with `O=C(NC(c1ccc(Cl)c(Cl)c1)c1nc(-c2ccccc2)no1)c1cccc(Cl)c1` (stereo not given), “inactive”.
On to `O=C(NC(c1ccc(Cl)cc1)c1nc(-c2ccccc2)no1)c1ccc(Cl)c(Br)c1` (stereo not given), for which the IC50 is > 28.2 µM (inactive).
In the case of `O=C(NC(c1ccc(Cl)cc1)c1nc(-c2ccccc2)no1)c1cccc(Cl)c1` (stereo not given) it was > 28.2 µM (inactive); in that of `O=C(NC(Cc1ccccc1)c1nc(-c2ccccc2)no1)c1cccc(Cl)c1` (stereo not given), “inactive”; in that of `O=C(c1cccc(Cl)c1)N(CCO)C(c1ccc(Cl)c(Cl)c1)c1nc(-c2ccccc2)no1` (stereo not given), 9.9 µM.
In the case of `O=C(NC(c1ccc(Cl)cc1)c1nc(-c2ccccn2)no1)c1cccc(Cl)c1` (stereo not given) it was > 28.2 µM (inactive); in that of `O=C(NC(c1ccc(Cl)cc1)c1nc(-c2ccccc2)no1)c1ccc(Cl)c(Cl)c1` (stereo not given), > 28.2 µM (inactive); in that of `O=C(NC(c1ccc(Cl)c(Cl)c1)c1nc(-c2ccccc2)no1)c1ccccc1` (stereo not given), > 28.2 µM (inactive).
As to `O=C(NC(c1ccccc1)c1nc(-c2ccccc2)no1)c1cccc(Br)c1` (stereo not given), the IC50 is > 28.2 µM (inactive).
In the case of `O=C(NC(c1ccccc1)c1nc(-c2ccccc2)no1)c1cccc(Cl)n1` (stereo not given) it was “inactive”; in that of `O=C(NC(c1cccc(Cl)c1)c1nc(-c2ccccc2)no1)c1cccc(Cl)c1` (stereo not given), 5.1 µM; in that of `O=C(NC(c1nc(-c2ccccc2)no1)C1CCOCC1)c1ccc(Cl)c(Cl)c1` (stereo not given), > 28.2 µM (inactive).
As to `O=C(NC(c1cccc(Cl)c1)c1nc(-c2ccccc2)no1)c1ccc(Cl)c(Cl)c1` (stereo not given), the IC50 is > 28.2 µM (inactive).
With `O=C(NC(c1ccccc1)c1nc(-c2ccccc2)no1)c1cccc(Cl)c1` (stereo not given), the IC50 was > 28.2 µM (inactive).
